Measured values: patent publication US10947188B2, “Small molecule ferroptosis inducers” (THE TRUSTEES OF COLUMBIA UNIVERSITY IN THE CITY OF NEW YORK, priority 2016, dated 2021)

Tested on: BJeLR
Test: Modulatory profiling: Alamar Blue viability, lethal compound cotreated with death modulator (EC50, AUC)
Format: cell-based, human
Set-up: AUC, modulator BJ.Gd3+ / AUC, modulator BJ.LNAME / AUC, modulator BJ.Lmin / AUC, modulator BJ.3MA / AUC, modulator BJ.ALLN / AUC, modulator BJ.Boc D / AUC, modulator BJ.CHX / AUC, modulator BJ.Co2+ / AUC, modulator BJ.Nec-1 / AUC, modulator BJ.Pepstatin / AUC, modulator BJ.TLCK / AUC, modulator BJ.atoc / AUC, modulator BJ.trolox / AUC, modulator BJ.zVAD: unit not given beside the values
Details: for AUC, modulator BJ.3MA / AUC, modulator BJ.ALLN / AUC, modulator BJ.Boc D / AUC, modulator BJ.CHX / AUC, modulator BJ.Co2+ / AUC, modulator BJ.DPQ / AUC, modulator BJ.Gd3+ / AUC, modulator BJ.LNAME / AUC, modulator BJ.Lmin/NAD+ / AUC, modulator BJ.Lmin / AUC, modulator BJ.NAD+ / AUC, modulator BJ.NMMA / AUC, modulator BJ.Nec-1 / AUC, modulator BJ.Pepstatin / AUC, modulator BJ.TLCK / AUC, modulator BJ.atoc / AUC, modulator BJ.trolox / AUC, modulator BJ.zVAD: BJeLR cells, modulatory profile value (AUC); for AUC, modulator BJ.3MA: lethal compound cotreated with modulator 3MA; for AUC, modulator BJ.ALLN: lethal compound cotreated with modulator ALLN; for AUC, modulator BJ.Boc D: lethal compound cotreated with modulator Boc D; for AUC, modulator BJ.CHX: lethal compound cotreated with modulator CHX; for AUC, modulator BJ.Co2+: lethal compound cotreated with modulator Co2+; for AUC, modulator BJ.DPQ: lethal compound cotreated with modulator DPQ; for AUC, modulator BJ.Gd3+: lethal compound cotreated with modulator Gd3+; for AUC, modulator BJ.LNAME: lethal compound cotreated with modulator LNAME; for AUC, modulator BJ.Lmin/NAD+: lethal compound cotreated with modulator Lmin/NAD+; for AUC, modulator BJ.Lmin: lethal compound cotreated with modulator Lmin; for AUC, modulator BJ.NAD+: lethal compound cotreated with modulator NAD+; for AUC, modulator BJ.NMMA: lethal compound cotreated with modulator NMMA; for AUC, modulator BJ.Nec-1: lethal compound cotreated with modulator Nec-1; for AUC, modulator BJ.Pepstatin: lethal compound cotreated with modulator Pepstatin; for AUC, modulator BJ.TLCK: lethal compound cotreated with modulator TLCK; for AUC, modulator BJ.atoc: lethal compound cotreated with modulator atoc; for AUC, modulator BJ.trolox: lethal compound cotreated with modulator trolox; for AUC, modulator BJ.zVAD: lethal compound cotreated with modulator zVAD; for EC50: Homo sapiens, BJeLR, 48 h

Row | Structure (SMILES) | AUC, modulator BJ.3MA | AUC, modulator BJ.ALLN | AUC, modulator BJ.Boc D | AUC, modulator BJ.CHX | AUC, modulator BJ.Co2+ | AUC, modulator BJ.DPQ | AUC, modulator BJ.Gd3+ | AUC, modulator BJ.LNAME | AUC, modulator BJ.Lmin/NAD+ | AUC, modulator BJ.Lmin | AUC, modulator BJ.NAD+ | AUC, modulator BJ.NMMA | AUC, modulator BJ.Nec-1 | AUC, modulator BJ.Pepstatin | AUC, modulator BJ.TLCK | AUC, modulator BJ.atoc | AUC, modulator BJ.trolox | AUC, modulator BJ.zVAD | other results
1 | N/C(=N\OC(=O)C12CC3CC(CC(C3)C1)C2)c1ccccc1 [CIL41] | 0.117 | −0.08211 | −0.06374 | −0.0571 | −0.02378 | 0.02161 | −0.006767 | 0.00307 | 0.1504 | 0.2032 | −0.0198 | 0.04219 | 0.09368 | −0.03128 | −0.02463 | 0.2729 | 0.1871 | 0.03607 | EC50 (DMSO): 3.17 µM; EC50 (cotreated with Lmim_NAD): 22.6 µM; EC50 (cotreated with antioxidant Trolox): 23.2 µM; EC50 (cotreated with antioxidant atoc): 36.6 µM; EC50 (cotreated with iron-chelator Lmim): 22.4 µM
2 | COc1cc2c(c(OC)c1OC)-c1ccc(OC)c(=O)cc1[C@@H](NC(C)=O)CC2 [Colchicine] | 0.003026 | −0.03356 | −0.0009082 | 0.161 | 0.1688 | −0.03053 | −0.01061 | −0.008548 | 0.1409 | 0.05808 | 0.1128 | −0.005221 | −0.04443 | 0.003669 | −0.01338 | −0.02812 | −0.004229 | 0.05702 | 
3 | O=C1C(Cl)=C(N2CCOCC2)C(=O)C(Cl)=C1N1CCOCC1 [CIL11] | 0.09004 | 0.01538 | −0.04323 | 0.1239 | 0.07771 | −0.01566 | 0.02905 | −0.0003217 | 0.01344 | −0.04034 | −0.03919 | −0.00378 | 0.02974 | 0.04125 | −0.01155 | −0.02082 | −0.01782 | −0.004517 | 
4 | CC1=CC(C)(C)Nc2ccc(OC(=O)c3ccco3)cc21 [CIL2] | 0.06431 | −0.03978 | −0.03808 | 0.03999 | −0.1362 | 0.003929 | 0.01322 | −0.004423 | −0.01944 | 0.008318 | 0.03383 | −0.005234 | 0.0318 | 0.05923 | 0.06974 | −0.01149 | 0.001657 | −0.003959 | 
5 | C[S+]([O-])c1nc(-c2ccc(Br)cc2)cc(-c2ccccc2)c1C#N (centres unmarked) [CIL17] | 0.07927 | −0.07478 | −0.03116 | −0.0462 | −0.04764 | 0.004679 | −0.04 | −0.008054 | −0.03209 | −0.02464 | −0.01632 | −0.01688 | 0.02959 | 0.03912 | −0.07864 | 0.006451 | −0.001174 | −0.02313 | 
6 | CC(C)(C)C1CCc2c(sc(NC(=O)CN3CCNCC3)c2C(N)=O)C1 (centres unmarked) [CIL10] | 0.134 | −0.01713 | −0.05212 | −0.01805 | 0.1142 | −0.02695 | 0.007922 | 0.01363 | −0.01396 | −0.02341 | −0.001182 | 0.006192 | 0.07272 | 0.001044 | −0.05831 | 0.0467 | 0.05527 | −0.007333 | 
7 | C[C@@H]1C[C@@H]([C@H](O)CC2CC(=O)NC(=O)C2)C(=O)[C@@H](C)C1 [cycloheximide, Cycloheximide, reference compound] | 0.03847 | 0.09461 | 0.02242 | 0.3613 | 0.2375 | 0.02122 | 0.02359 | 0.007696 | 0.1057 | 0.0775 | 0.08265 | 0.002535 | 0.03326 | 0.01475 | 0.03153 | 0.0001672 | 0.01856 | 0.02186 | 
8 | O=c1c(N2CCCC2)c(Cl)cnn1-c1ccccc1 [CIL20] | 0.055 | −0.09098 | −0.06373 | −0.009677 | 0.04763 | −0.02696 | 0.04266 | −0.001747 | −0.03734 | −0.02603 | 0.03043 | −0.01046 | 0.0115 | −0.002516 | −0.00743 | −0.005113 | 0.02308 | −0.04036 | 
9 | CN(C)CCCOS(=O)(=O)c1ccc(N2CCC(c3ccc(Cl)cc3)=N2)cc1 [CIL40] | 0.1131 | −0.02592 | −0.05607 | −0.1423 | 0.03348 | 0.01887 | −0.004738 | 0.002197 | −0.06069 | −0.05273 | 0.005587 | 0.05461 | 0.02442 | −0.01642 | −0.05358 | 0.05022 | 0.03943 | 0.007977 | 
10 | COc1ccccc1/C=C/C1(C(=O)NC2CCCC2)CC(=O)N1c1ccc(F)cc1 (centres unmarked) [CIL1] | 0.0947 | −0.03319 | −0.0465 | −0.08681 | 0.09572 | −0.01655 | −0.001577 | −0.02103 | −0.01947 | −0.0142 | 0.03941 | −0.02498 | 0.0816 | 0.07639 | 0.01375 | 0.05385 | 0.08302 | −0.04705 | 
11 | COc1ccc(N(C(=O)CCl)C(C(=O)NCCc2ccccc2)c2cccs2)cc1 (centres unmarked) [DPI4] | 0.0813 | −0.07596 | −0.0206 | −0.04482 | 0.116 | 0.02148 | 0.06864 | 0.00317 | 0.1443 | 0.1443 | 0.03153 | 0.004961 | 0.1295 | 0.03966 | 0.1612 | 0.2611 | 0.2547 | −0.02179 | 
12 | O=c1c(Cl)c(Cl)cnn1-c1ccc(Cl)c(C(F)(F)F)c1 [CIL25] | 0.02374 | −0.07209 | −0.009758 | −0.0273 | −0.003244 | 0.001852 | 0.04216 | −0.004428 | 0.09246 | 0.01628 | 0.06106 | 0.01683 | 0.03297 | −0.00415 | −0.05889 | 0.02909 | −0.001029 | 0.03879 | 
13 | CC1CC2=C(CC1CNCCCN(C)C)C(C)(C)CCC2 (centres unmarked) [CIL26] | 0.05124 | −0.0584 | −0.05574 | −0.001733 | 0.04871 | 0.01829 | 0.004541 | −0.03322 | 0.09111 | −0.0139 | 0.005678 | 0.006781 | −0.03974 | 0.02268 | −0.06133 | 0.05008 | 0.03147 | −0.003259 | 
